Key:
[1] = tested on: respiratory syncytial viruses; type: cell-based
yellow fever virus = type: cell-based
influenza A H1N1 viruses = type: cell-based
poliovirus = type: cell-based
chikungunya viruses = type: cell-based
MERS coronavirus = type: cell-based
human cytomegalovirus = type: cell-based
[2] = tested on: Venezuelan equine encephalitis viruses; type: cell-based
hepatitis B = type: cell-based
dengue viruses = type: cell-based
Herpes simplex virus 1 = type: cell-based
rift valley fever virus = type: cell-based
vaccinia virus = type: cell-based
hepatitis C virus = type: cell-based
[3] = tested on: nun small cell lung cancer mice model; test: nun small cell lung cancer mice model; type: in vivo; conditions: 80 mg/kg/day, China Tongi medical university
[4] = tested on: pancreatic cancer Mia PaCa2 cell; type: cell-based
[5] = tested on: hand foot mouth disease mice model; test: hand foot mouth disease mice model; type: in vivo; conditions: 320 mg/kg/day, China food and drug inspection Ins.
tacaribe virus = type: cell-based
[6] = tested on: human primary white cells

| SMILES | inhibition of respiratory syncytial viruses [1] | inhibition of yellow fever virus (yellow fever virus) | inhibition of influenza A H1N1 viruses (influenza A H1N1 viruses) | inhibition of poliovirus (poliovirus) | inhibition of chikungunya viruses (chikungunya viruses) | inhibition of MERS coronavirus (MERS coronavirus) | inhibition of human cytomegalovirus (human cytomegalovirus) | inhibition of Venezuelan equine encephalitis viruses [2] | function against hepatitis B (hepatitis B) | inhibition of dengue viruses (dengue viruses) | inhibition of Herpes simplex virus 1 (Herpes simplex virus 1) | inhibition of rift valley fever virus (rift valley fever virus) | inhibition of vaccinia virus (vaccinia virus) | inhibition of hepatitis C virus (hepatitis C virus) | prevention and early stage treatment function in lung cancer mice model [3] | inhibition of Mia PaCa2 cell growth [4] | function in hand foot mouth disease mice model [5] | inhibition of tacaribe virus (tacaribe virus) | safety for human primary white cells [6] |
| --- | --- | --- | --- | --- | --- | --- | --- | --- | --- | --- | --- | --- | --- | --- | --- | --- | --- | --- | --- |
| OC[C@H]1O[C@@H](Oc2c[nH]c3ccccc23)[C@H](O)[C@@H](O)[C@@H]1O [Indican] | inhibits | inhibits | inhibits | inhibit | inhibits | inhibits | inhibit | inhibits | does not show function | inhibits | inhibit | inhibit | inhibit | inhibits | significant prevention and early stage treatment function | inhibit | significant function | inhibit | – |
| N[C@@H](Cc1c[nH]c2ccccc12)C(=O)O [Tryptophan] | – | – | – | inhibit | – | – | inhibit | – | – | – | inhibit | inhibit | inhibit | – | significant prevention and early stage treatment function | inhibit | significant function | inhibit | safe |

Reference: patent US20180015072A1, “Tryptophan is a pro-drug for infectious diseases and cancers” (priority 2016, published 2018)
